From article PMC6345968, “Structural basis for species-selective targeting of Hsp90 in a pathogenic fungus” (Nature Communications, 2019)
Where two headings read alike, the source gives them in different places.

How the values were obtained:
[1] = target: T1, Hsp90 in C. albicans (SC5314) lysate (Candida albicans, UniProt P46598); assay: biochemical; format: binding; conditions: for EC50: not normalized, oxime panel experiment 220817; for Ratio re. GdA: EC50 relative to GdA; for FP signal: raw
T1 construct: endogenous in cells; host or cells: C. albicans SC5314 whole-cell lysate
T1 sequence (P46598 whole entry): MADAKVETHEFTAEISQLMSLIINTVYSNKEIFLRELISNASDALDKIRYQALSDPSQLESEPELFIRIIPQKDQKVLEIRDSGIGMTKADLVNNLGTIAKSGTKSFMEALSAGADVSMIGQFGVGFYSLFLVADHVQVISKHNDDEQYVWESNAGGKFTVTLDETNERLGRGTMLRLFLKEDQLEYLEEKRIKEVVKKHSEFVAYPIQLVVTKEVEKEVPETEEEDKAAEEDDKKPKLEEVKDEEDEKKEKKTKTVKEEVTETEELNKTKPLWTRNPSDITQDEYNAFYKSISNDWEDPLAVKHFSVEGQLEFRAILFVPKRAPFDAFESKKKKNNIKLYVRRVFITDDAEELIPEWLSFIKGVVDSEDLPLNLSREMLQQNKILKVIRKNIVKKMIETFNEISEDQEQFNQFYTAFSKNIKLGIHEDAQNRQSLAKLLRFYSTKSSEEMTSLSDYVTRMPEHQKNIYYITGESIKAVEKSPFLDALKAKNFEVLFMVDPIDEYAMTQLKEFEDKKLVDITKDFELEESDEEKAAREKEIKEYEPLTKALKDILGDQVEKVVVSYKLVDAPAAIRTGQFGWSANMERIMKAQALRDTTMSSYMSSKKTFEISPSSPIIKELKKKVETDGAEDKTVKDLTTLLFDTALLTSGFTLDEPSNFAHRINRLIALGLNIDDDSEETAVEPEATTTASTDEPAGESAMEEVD

Hsp90 in HEPG2 lysate = conditions: for FP signal (raw) / FP signal / EC50: HepG2 lysate; for FP signal: raw; for EC50: oxime panel experiment 220817
[2] = SC5314 lysate, 0.457 nM compound
[3] = SC5314 lysate, 1.372 nM compound
[4] = SC5314 lysate, 4.115 nM compound
[5] = SC5314 lysate, 12.346 nM compound
[6] = SC5314 lysate, 37.037 nM compound
[7] = SC5314 lysate, 111.111 nM compound
[8] = SC5314 lysate, 333.333 nM compound
[9] = SC5314 lysate, 1000 nM compound
[10] = SC5314 lysate, 3000 nM compound
[11] = ratio of GdA-normalized EC50s, human over fungal lysate
[12] = ratio of GdA-relative EC50 ratios, HepG2 over SC5314
[13] = EC50 / EC50 of GdA in HepG2 lysate
[14] = EC50 relative to GdA, HEPG2 lysate
[15] = HEPG2 lysate, log concentration 0.137354 (1.372 nM)
[16] = HEPG2 lysate, log concentration 0.61437 (4.115 nM)
[17] = HEPG2 lysate, log concentration 1.09153 (12.346 nM)
[18] = HEPG2 lysate, log concentration 1.56864 (37.037 nM)
[19] = HEPG2 lysate, log concentration 2.04576 (111.111 nM)
[20] = HEPG2 lysate, log concentration 2.52288 (333.333 nM)
[21] = HEPG2 lysate, log concentration 3 (1000 nM)
[22] = HEPG2 lysate, log concentration 3.47712 (3000 nM)
[23] = HEPG2 lysate, log concentration -0.340084 (0.457 nM)

`CC1CC2OC2C=CC=CC(=NOCCN2CCCC2=O)Cc2c(Cl)c(O)cc(O)c2C(=O)O1` (centres unmarked) [KF58333, reference compound] was tested, and the EC50 ([1]; EC50, SC5314 lysate) was 6.86 nM, the “Ratio re. GdA” value ([1]; SC5314 lysate) was 0.4034 and the “FP signal (raw)” value ([1]; SC5314 lysate, 0.457 nM) was 203. The “FP signal relative to 0 nM” value [1, 2] was 0.9807, the FP signal [1, 2] was 203 and the “FP signal (raw)” value ([1]; SC5314 lysate, 1.372 nM) was 193. The “FP signal relative to 0 nM” value [1, 3] was 0.9324, the FP signal [1, 3] was 193 and the “FP signal (raw)” value ([1]; SC5314 lysate, 4.115 nM) was 162. For the same molecule, the “FP signal relative to 0 nM” value [1, 4] was 0.7826, the FP signal [1, 4] was 162 and the “FP signal (raw)” value ([1]; SC5314 lysate, 12.346 nM) was 71. The “FP signal relative to 0 nM” value [1, 5] was 0.343, the FP signal [1, 5] was 71 and the “FP signal (raw)” value ([1]; SC5314 lysate, 37.037 nM) was 44. For the same molecule, the “FP signal relative to 0 nM” value [1, 6] was 0.2126, the FP signal [1, 6] was 44 and the “FP signal (raw)” value ([1]; SC5314 lysate, 111.111 nM) was 38. The “FP signal relative to 0 nM” value [1, 7] was 0.1836, the FP signal [1, 7] was 38 and the “FP signal (raw)” value ([1]; SC5314 lysate, 333.333 nM) was 35. The “FP signal relative to 0 nM” value [1, 8] was 0.1691, the FP signal [1, 8] was 35 and the “FP signal (raw)” value ([1]; SC5314 lysate, 1000 nM) was 37. The “FP signal relative to 0 nM” value [1, 9] was 0.1787, the FP signal [1, 9] was 37 and the “FP signal (raw)” value ([1]; SC5314 lysate, 3000 nM) was 36. The “FP signal relative to 0 nM” value [1, 10] was 0.1739, the FP signal [1, 10] was 36 and the HepG2/SC5314 [1, 11] was 1.165. The HepG2/SC5314 [1, 12] was 1.165, the “Ratio rel. GdA (HepG2)” value (Hsp90 in HEPG2 lysate; [13]) was 0.4698 and the “Ratio rel. GdA (HepG2)” value (Hsp90 in HEPG2 lysate; [14]) was 0.4698. For the same molecule, the “FP signal, Fxn Control” value (Hsp90 in HEPG2 lysate; [15]) was 0.9604, the “FP signal, Fxn Control” value (Hsp90 in HEPG2 lysate; [16]) was 0.9307 and the “FP signal, Fxn Control” value (Hsp90 in HEPG2 lysate; [17]) was 0.5149. For the same molecule, the “FP signal, Fxn Control” value (Hsp90 in HEPG2 lysate; [18]) was 0.302, the “FP signal, Fxn Control” value (Hsp90 in HEPG2 lysate; [19]) was 0.2277 and the “FP signal, Fxn Control” value (Hsp90 in HEPG2 lysate; [20]) was 0.2129. The “FP signal, Fxn Control” value (Hsp90 in HEPG2 lysate; [21]) was 0.2277, the “FP signal, Fxn Control” value (Hsp90 in HEPG2 lysate; [22]) was 0.2475 and the “FP signal, Fxn Control” value (Hsp90 in HEPG2 lysate; [23]) was 0.9703. The “FP signal (raw)” value (Hsp90 in HEPG2 lysate; 0.457 nM) was 196, the FP signal (Hsp90 in HEPG2 lysate; 0.457 nM compound) was 196 and the “FP signal (raw)” value (Hsp90 in HEPG2 lysate; 1.372 nM) was 194. The FP signal (Hsp90 in HEPG2 lysate; 1.372 nM compound) was 194, the “FP signal (raw)” value (Hsp90 in HEPG2 lysate; 4.115 nM) was 188 and the FP signal (Hsp90 in HEPG2 lysate; 4.115 nM compound) was 188. For the same molecule, the “FP signal (raw)” value (Hsp90 in HEPG2 lysate; 12.346 nM) was 104, the FP signal (Hsp90 in HEPG2 lysate; 12.346 nM compound) was 104 and the “FP signal (raw)” value (Hsp90 in HEPG2 lysate; 37.037 nM) was 61. The FP signal (Hsp90 in HEPG2 lysate; 37.037 nM compound) was 61, the “FP signal (raw)” value (Hsp90 in HEPG2 lysate; 111.111 nM) was 46 and the FP signal (Hsp90 in HEPG2 lysate; 111.111 nM compound) was 46. For the same molecule, the “FP signal (raw)” value (Hsp90 in HEPG2 lysate; 333.333 nM) was 43, the FP signal (Hsp90 in HEPG2 lysate; 333.333 nM compound) was 43 and the “FP signal (raw)” value (Hsp90 in HEPG2 lysate; 1000 nM) was 46. For the same molecule, the FP signal (Hsp90 in HEPG2 lysate; 1000 nM compound) was 46, the “FP signal (raw)” value (Hsp90 in HEPG2 lysate; 3000 nM) was 50 and the FP signal (Hsp90 in HEPG2 lysate; 3000 nM compound) was 50. It also gave an EC50 (Hsp90 in HEPG2 lysate) of 10.4 nM.
For `CC1CC2OC2C=CC=CC(=NOCc2cccc(F)c2)Cc2c(Cl)c(O)cc(O)c2C(=O)O1` (mixture of isomers) [compound 227], the “Ratio re. GdA” value ([1]; SC5314 lysate) was 21.164, the “FP signal (raw)” value ([1]; SC5314 lysate, 0.457 nM) was 194 and the “FP signal relative to 0 nM” value [1, 2] was 0.9652. The FP signal [1, 2] was 194, the “FP signal (raw)” value ([1]; SC5314 lysate, 1.372 nM) was 195 and the “FP signal relative to 0 nM” value [1, 3] was 0.9701. The FP signal [1, 3] was 195, the “FP signal (raw)” value ([1]; SC5314 lysate, 4.115 nM) was 190 and the “FP signal relative to 0 nM” value [1, 4] was 0.9453. For the same molecule, the FP signal [1, 4] was 190, the “FP signal (raw)” value ([1]; SC5314 lysate, 12.346 nM) was 193 and the “FP signal relative to 0 nM” value [1, 5] was 0.9602. The FP signal [1, 5] was 193, the “FP signal (raw)” value ([1]; SC5314 lysate, 37.037 nM) was 178 and the “FP signal relative to 0 nM” value [1, 6] was 0.8856. For the same molecule, the FP signal [1, 6] was 178, the “FP signal (raw)” value ([1]; SC5314 lysate, 111.111 nM) was 162 and the “FP signal relative to 0 nM” value [1, 7] was 0.806. For the same molecule, the FP signal [1, 7] was 162, the “FP signal (raw)” value ([1]; SC5314 lysate, 333.333 nM) was 111 and the “FP signal relative to 0 nM” value [1, 8] was 0.5522. For the same molecule, the FP signal [1, 8] was 111, the “FP signal (raw)” value ([1]; SC5314 lysate, 1000 nM) was 56 and the “FP signal relative to 0 nM” value [1, 9] was 0.2786. For the same molecule, the FP signal [1, 9] was 56, the “FP signal (raw)” value ([1]; SC5314 lysate, 3000 nM) was 32 and the “FP signal relative to 0 nM” value [1, 10] was 0.1592. For the same molecule, the FP signal [1, 10] was 32, the EC50 ([1]; SC5314 lysate, read-out: EC50) was 360 nM and the HepG2/SC5314 [1, 11] was 1.415. For the same molecule, the HepG2/SC5314 [1, 12] was 1.415, the “Ratio rel. GdA (HepG2)” value (Hsp90 in HEPG2 lysate; [13]) was 29.9414 and the “Ratio rel. GdA (HepG2)” value (Hsp90 in HEPG2 lysate; [14]) was 29.9414. For the same molecule, the “FP signal, Fxn Control” value (Hsp90 in HEPG2 lysate; [15]) was 0.976, the “FP signal, Fxn Control” value (Hsp90 in HEPG2 lysate; [16]) was 0.9615 and the “FP signal, Fxn Control” value (Hsp90 in HEPG2 lysate; [17]) was 0.9712. For the same molecule, the “FP signal, Fxn Control” value (Hsp90 in HEPG2 lysate; [18]) was 0.9519, the “FP signal, Fxn Control” value (Hsp90 in HEPG2 lysate; [19]) was 0.9038 and the “FP signal, Fxn Control” value (Hsp90 in HEPG2 lysate; [20]) was 0.7933. For the same molecule, the “FP signal, Fxn Control” value (Hsp90 in HEPG2 lysate; [21]) was 0.399, the “FP signal, Fxn Control” value (Hsp90 in HEPG2 lysate; [22]) was 0.1923 and the “FP signal, Fxn Control” value (Hsp90 in HEPG2 lysate; [23]) was 0.976. The “FP signal (raw)” value (Hsp90 in HEPG2 lysate; 0.457 nM) was 203, the FP signal (Hsp90 in HEPG2 lysate; 0.457 nM compound) was 203 and the “FP signal (raw)” value (Hsp90 in HEPG2 lysate; 1.372 nM) was 203. The FP signal (Hsp90 in HEPG2 lysate; 1.372 nM compound) was 203, the “FP signal (raw)” value (Hsp90 in HEPG2 lysate; 4.115 nM) was 200 and the FP signal (Hsp90 in HEPG2 lysate; 4.115 nM compound) was 200. The “FP signal (raw)” value (Hsp90 in HEPG2 lysate; 12.346 nM) was 202, the FP signal (Hsp90 in HEPG2 lysate; 12.346 nM compound) was 202 and the “FP signal (raw)” value (Hsp90 in HEPG2 lysate; 37.037 nM) was 198. The FP signal (Hsp90 in HEPG2 lysate; 37.037 nM compound) was 198, the “FP signal (raw)” value (Hsp90 in HEPG2 lysate; 111.111 nM) was 188 and the FP signal (Hsp90 in HEPG2 lysate; 111.111 nM compound) was 188. For the same molecule, the “FP signal (raw)” value (Hsp90 in HEPG2 lysate; 333.333 nM) was 165, the FP signal (Hsp90 in HEPG2 lysate; 333.333 nM compound) was 165 and the “FP signal (raw)” value (Hsp90 in HEPG2 lysate; 1000 nM) was 83. The FP signal (Hsp90 in HEPG2 lysate; 1000 nM compound) was 83, the “FP signal (raw)” value (Hsp90 in HEPG2 lysate; 3000 nM) was 40 and the FP signal (Hsp90 in HEPG2 lysate; 3000 nM compound) was 40. For the same molecule, the EC50 (Hsp90 in HEPG2 lysate) was 664 nM.
